According to paper PMC5484141, “Asperentin B, a New Inhibitor of the Protein Tyrosine Phosphatase 1B” (Marine Drugs, 2017):
In brackets after ≈: the same amount, converted by molar mass. Several values for one entry are separate records, joined by “and”; a condition that tells them apart may be missing. Equal entries are not always repeated. Entries after “also recorded” stand apart in the source; their conditions may differ. Where two headings read alike, the source gives them in different places.

How the values were obtained:
[1] = test system: leukemia cell line P388; set-up: method as in PMID 17958319; settings: cited from earlier work
[2] = test system: etiolated wheat coleoptile; set-up: method as in PMID 8229019; settings: concentration of 1 mM; cited from earlier work
[3] = test system: Bacillus brevis; set-up: method as in PMID 646581; settings: cited from earlier work
[4] = test system: Sarcina lutea; set-up: method as in PMID 646581; settings: cited from earlier work
[5] = test system: Arthrobacter citreus; set-up: method as in PMID 646581; settings: cited from earlier work
[6] = test system: Propionibacterium acnes; assay: Antimicrobial activity against Propionibacterium acnes; type: cell-based
Experimental: (§1) Antimicrobial activities of compounds 1 and 2 against Bacillus subtilis DSM 347, Staphylococcus lentus DSM 6672, Propionibacterium acnes, Xanthomonas campestris, and Septoria tritici, as well as the cytotoxic activity against the cell lines HepG3 (hepatocellular carcinoma) and HT29 (colon adenocarcinoma) were assayed as described by Schneemann et al. [27].

[7] = test system: HT29 (colon adenocarcinoma); assay: Cytotoxic activity against HT29; type: cell-based; settings: test concentrations up to 50 μM (stated for 1)
Experimental: as §1

[8] = test system: Septoria tritici; assay: Antimicrobial activity against Septoria tritici; type: cell-based
Experimental: (§2) Antimicrobial activities of compounds 1 and 2 against Bacillus subtilis DSM 347, Staphylococcus lentus DSM 6672, Propionibacterium acnes, Xanthomonas campestris, and Septoria tritici, as well as the cytotoxic activity against the cell lines HepG3 (hepatocellular carcinoma) and HT29 (colon adenocarcinoma) were assayed as described by Schneemann et al. [27]. The effect on the growth of human pathogenic yeast, Candida albicans DSM 1386, was measured according to Ohlendorf et al. [28]. The activity of compound 2 against the dermatophyte Trichophyton mentagrophytes was tested as described by Nagel et al. [29].

[9] = test system: Xanthomonas campestris; assay: Antimicrobial activity against Xanthomonas campestris; type: cell-based; settings: concentrations of 100 μM (stated for 1)
Experimental: as §1

[10] = test system: Staphylococcus lentus DSM 6672; assay: Antimicrobial activity against Staphylococcus lentus; type: cell-based; settings: concentrations of 100 μM (stated for 1)
Experimental: as §1

[11] = test system: Bacillus subtilis DSM 347; assay: Antimicrobial activity against Bacillus subtilis; type: cell-based; settings: concentrations of 100 μM (stated for 1)
Experimental: as §1

[12] = test system: HepG2; assay: Cytotoxic activity against HepG2; type: cell-based; settings: test concentrations up to 50 μM
Experimental: as §2

[13] = molecular target: T1, human recombinant protein tyrosine phosphatase 1B (PTP1B) (Homo sapiens, UniProt P18031); assay: PTP1B inhibition assay with substrate IR5 (Biomol green phosphate detection); type: biochemical
T1 construct: purchased Biomol SE332-0050
Experimental: The effect of 1 and 2 on human recombinant protein tyrosine phosphatase 1B (PTP1B) was tested in microtiter plates. […] After warming for 10 min to the assay temperature of 30 °C 5 μL of human recombinant PTP1B (Biomol; CatNo. SE332-0050) stock solution (1 ng/μL) were added. The reaction was started with 50 μL of the substrate IR5 (insulin receptor amino acids 1142–1153 with pTyr at position 1146 (Biosyntan, Berlin, Germany) dissolved in PTP1B assay buffer to a concentration of 0.15 mM. The phosphopeptid IR5 comprises the amino acid sequence Thr-Arg-Asp-Ile-p[…]COOH and is part of the autophosphorylation domain of the insulin receptor (IR). After an incubation period of 25 min at 30°C the reaction was stopped by adding 150 μL of Biomol green (Biomol, CatNo. AK111-0250). PTP1B dephosphorylates the IR5 substrate resulting in the release of orthophosphate which was quantified after incubating for 20 min at 620 nm using the microtiter plate reader Infinite M200 (Tecan Group Ltd., Männedorf, Switzerland). […] IC50 values were determined as duplicates.

[14] = test system: Candida albicans DSM 1386; assay: Growth of human pathogenic yeast Candida albicans; type: cell-based; settings: concentrations of 100 μM
Experimental: as §2

[15] = test system: dermatophytes, including Trichophyton rubrum; set-up: method as in PMID 5169000; settings: cited from earlier work
[16] = test system: Colletotrichum gleosporoides; set-up: method as in PMID 25517217; settings: cited from earlier work
[17] = test system: Botrytis cinerea; set-up: method as in PMID 25517217; settings: cited from earlier work
[18] = test system: Rhizoctonia solani; set-up: method as in PMID 5169000; settings: cited from earlier work
[19] = test system: Trichophyton mentagrophytes; assay: Activity against the dermatophyte Trichophyton mentagrophytes; type: cell-based; settings: read-out: inhibition of T. mentagrophytes in comparison to the positive control clotrimazole, concentration of 100 μM
Experimental: as §2

[20] = set-up: method as in doi:10.1007/s11802-014-2216-2; settings: cited from earlier work
[21] = test system: Micrococcus flavus; set-up: method as in PMID 5169000; settings: cited from earlier work
[22] = test system: PTP1B; set-up: method as in PMID 25819098; settings: read-out: IC50 value against PTP1B; cited from earlier work
[23] = test system: glycogen synthase kinase GSK-3 β; set-up: method as in PMID 27801816; settings: cited from earlier work
[24] = test system: PTP1B; set-up: method as in earlier work; settings: substrate p-nitrophenyl phosphate; ref 13 (McCain et al.); read-out: IC50 value against PTP1B; cited from earlier work

T1 sequence (P18031 1-322 limits assumed): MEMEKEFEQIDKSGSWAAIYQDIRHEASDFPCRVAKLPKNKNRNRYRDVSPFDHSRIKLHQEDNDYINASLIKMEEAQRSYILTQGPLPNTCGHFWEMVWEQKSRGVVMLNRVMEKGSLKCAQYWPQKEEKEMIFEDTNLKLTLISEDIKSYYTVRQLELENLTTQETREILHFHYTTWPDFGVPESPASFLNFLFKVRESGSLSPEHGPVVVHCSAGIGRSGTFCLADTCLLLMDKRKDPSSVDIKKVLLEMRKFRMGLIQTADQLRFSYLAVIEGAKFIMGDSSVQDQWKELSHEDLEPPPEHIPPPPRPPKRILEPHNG

For `C/C=C/[C@H]1CC(=O)c2cc(C)c(O)c(C)c2O1` [(2R)-2,3-dihydro-7-hydroxy-6,8-dimethyl-2-[(E)-prop-1-enyl]chromen-4-one], the “cytotoxic effects on P388” value [1] is given as “cytotoxic effects”.

In the case of `C[C@H]1CCC[C@@H](C[C@H]2Cc3cc(O)cc(O)c3C(=O)O2)O1` [isoasperentin, reference compound], the “growth inhibition, etiolated wheat coleoptile assay” value [2] is given as 100%.

For “dimethyl asperentin [reference compound]”, the “MIC, Bacillus brevis” value [3] is listed as 10 µg/mL, the “MIC, Sarcina lutea” value [4] is listed as greater than 100 µg/mL and the “MIC, Arthrobacter citreus” value [5] is listed as greater than 100 µg/mL.

With `CC1CCCC(CC2Cc3c(O)c(O)cc(O)c3C(=O)O2)O1` (stereo not shown) [compound 1, Asperentin B] the inhibition at 100 µM ([6]; Cutibacterium acnes, 100 μM test concentration) was 57%, the “cytotoxic effects against HT29” value [7] was “did not exhibit cytotoxic activities” and the “antibiotic activity against Septoria tritici (in words)” value ([8]; concentrations of 100 μM) was “No antibiotic activity”. The “antibiotic activity against Xanthomonas campestris” value [9] was “No antibiotic activity; also recorded: did not exhibit”, the “antibiotic activity against Staphylococcus lentus” value [10] was “No antibiotic activity; also recorded: did not exhibit” and the “antibiotic activity against Bacillus subtilis” value [11] was “No antibiotic activity; also recorded: did not exhibit”. The “cytotoxic effects against HepG2” value [12] was “No activities were not found”, the IC50 ([13]; in vitro, duplicates, read-out: IC50 value against PTP1B) was 2.05 µM and 2 µM and the “antibiotic activity against Candida albicans” value [14] was “No antibiotic activity”.

For `C[C@H]1CCC[C@H](C[C@H]2Cc3cc(O)cc(O)c3C(=O)O2)O1` [compound 2, asperentin], the “activity against P. acnes (in words)” value [6] is listed as “did not show any activity”, the “growth inhibition, etiolated wheat coleoptile assay” value [2] is listed as 81% and the “cytotoxic effects against HT29” value [7] is listed as “did not exhibit cytotoxic activities”. The “minimum inhibitory concentration (MIC), five dermatophytes including Trichophyton rubrum” value [15] was 75 µg/mL (≈ 257 µM), the inhibition at 100 µM ([8]; Zymoseptoria tritici, read-out: inhibition of S. tritici in comparison to the positive control clotrimazole, concentration of 100 μM) was 83% and the “MIC, Bacillus brevis” value [3] was 0.05 µg/mL (≈ 0.171 µM). The “antibiotic activity against Xanthomonas campestris” value [9] was “did not exhibit”, the “activity against Colletotrichum gleosporoides” value [16] was “active” and the “MIC, Sarcina lutea” value [4] was 2000 µg/mL (≈ 6840 µM). For the same molecule, the “activity against Botrytis cinerea” value [17] was “active”, the “antibiotic activity against Staphylococcus lentus” value [10] was “did not exhibit” and the “MIC, Arthrobacter citreus” value [5] was 1 µg/mL (≈ 3.42 µM). For the same molecule, the “antibiotic activity against Bacillus subtilis” value [11] was “did not exhibit; also recorded: not inhibited”, the “minimum inhibitory concentration (MIC), Rhizoctonia solani” value [18] was 75 µg/mL (≈ 257 µM) and the inhibition at 100 µM [19] was 100%. The “inhibition of PTP1B enzymatic activity (in words)” value [13] was “did not show any activity; also recorded: did not show any inhibition”.

For `CC(=O)C(C)c1oc(C)c(C)c(=O)c1C` (stereo not shown) [2,3,5-trimethyl-6-(3-oxobutan-2-yl)-4H-pyran-4-one], the “cytotoxic effects on P388” value [1] is listed as “cytotoxic effects”.

For brevianamide W, the antioxidant activity [20] is given as “antioxidant activity”.

For “Monoacetyl asperentin [reference compound]”, the “MIC, four dermatophytes including Trichophyton rubrum” value [15] is given as 75 µg/mL and the “MIC, Micrococcus flavus” value [21] is given as 75 µg/mL.

In the case of `CCCCCCCCCCCCCCCC(=O)C1=C(O)[C@@H](CO)OC1=O` [RK-682, (R)-4-Hydroxy-5-(hydroxymethyl)-3-(1-oxohexadecyl)-2(5H)-furanone], the IC50 [22] is given as 4.5 µM.

In the case of `Cc1cc2cc(O)cc(O)c2c2oc(=O)cc(O)c12` [pannorin], the “inhibition of GSK-3 β (in words)” value [23] is listed as “inhibitor”.

For `Cc1ccc(C(=O)Nc2ccc(S(=O)(=O)O)c3cc(S(=O)(=O)O)cc(S(=O)(=O)O)c23)cc1NC(=O)c1cccc(NC(=O)Nc2cccc(C(=O)Nc3cc(C(=O)Nc4ccc(S(=O)(=O)O)c5cc(S(=O)(=O)O)cc(S(=O)(=O)O)c45)ccc3C)c2)c1` [suramin], the IC50 [24] is listed as 11 µM.
